The text below walks through data of patent US8993604B2, “Treatment and prevention of dengue virus infections” (Siga Technologies, Inc., priority 2009, dated 2015).

For the first series, the system named is Dengue-2 (Strain New Guinea C). The experiment in a line: Viral yield assay in Vero cells. The class given is cell-based. Conditions: Dengue virus, Vero, 48 h, read-out: Activity (anti-dengue 2 viral activity, EC50 class). The procedure, abridged:
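Vero cells were infected with dengue virus at an MOI of 0.1, treated with compound or DMSO vehicle, and kept at 37° C. Supernatant virus was harvested 48 hours post infection and titered on Vero cells, with EC50 derived from yield reduction.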
With `Cc1ccc(-c2nc3ccccc3s2)cc1NC(=O)c1ccc2c(c1)OCO2` [Compound 121, Benzo[1,3]dioxole-5-carboxylic acid (5-benzothiazol-2-yl-2-methyl-phenyl)-amide], the EC50 – broadly, the concentration that produces a half-maximal response – is above 25 µM. Same read-out and setting: as for `Cc1c(NC(=O)c2cc(-n3cnnc3)ccc2Cl)cccc1-c1nc2ccccc2s1` [Compound 125, N-(3-Benzothiazol-2-yl-2-methyl-phenyl)-2-chloro-5-[1,2,4]triazol-4-yl-benzamide], the figure is above 25 µM; as for `Cc1ccc2nc(-c3ccc(NC(=O)c4ccccc4C(=O)O)cc3)sc2c1` [Compound 126, N-[4-(6-Methyl-benzothiazol-2-yl)-phenyl]-phthalamic acid], above 25 µM.

Still in this series, the particulars now being: Dengue virus; Vero cells, MOI 0.1, harvested 48 hours post infection; read-out: Activity (anti-dengue 2 viral activity, EC50 class).
Take `COc1ccc(C(=O)Nc2ccc(-c3nc4ccc(C)cc4s3)cc2)c(OC)c1` [Compound 3, 2,4-Dimethoxy-N-[4-(6-methyl-benzothiazol-2-yl)-phenyl]-benzamide]: the EC50 is below 1 µM. Consider `O=C(Nc1ccccc1-c1nc2ccccc2s1)c1cccc(OCc2ccccc2)c1` [Compound 111, N-(2-Benzothiazol-2-yl-phenyl)-3-benzyloxy-benzamide], for which the 50% effective concentration (EC50) was above 25 µM. On the same count and under the same terms, the value for `COc1ccccc1C(=O)Nc1ccccc1-c1nc2ccccc2s1` [Compound 112, N-(2-Benzothiazol-2-yl-phenyl)-2-methoxy-benzamide] was above 25 µM; that for `COc1ccc(C(=O)Nc2ccccc2-c2nc3ccccc3s2)cc1[N+](=O)[O-]` [Compound 113, N-(2-Benzothiazol-2-yl-phenyl)-4-methoxy-3-nitro-benzamide] was above 25 µM; that for `Cc1c(C(=O)Nc2ccccc2-c2nc3ccccc3s2)cccc1[N+](=O)[O-]` [Compound 114, N-(2-Benzothiazol-2-yl-phenyl)-2-methyl-3-nitro-benzamide] was above 25 µM.

As to `Cc1cc(C(=O)Nc2ccccc2-c2nc3ccccc3s2)ccc1[N+](=O)[O-]` [Compound 115, N-(2-Benzothiazol-2-yl-phenyl)-3-methyl-4-nitro-benzamide], the EC50 was above 25 µM. The same measure, in the same setting: as for `O=C(Nc1ccccc1-c1nc2ccccc2s1)c1ccccc1Br` [Compound 116, N-(2-Benzothiazol-2-yl-phenyl)-2-bromo-benzamide], the figure is above 25 µM. As for `Cc1ccc(C(=O)Nc2cc(-c3nc4ccccc4s3)ccc2C)c(C)c1` [Compound 117, N-(5-Benzothiazol-2-yl-2-methyl-phenyl)-2,4-dimethyl-benzamide], the EC50 is above 25 µM. The same measure, in the same setting: the value for `COc1cccc(OC)c1C(=O)Nc1ccc(Cl)c(-c2nc3ccccc3s2)c1` [Compound 118, N-(3-Benzothiazol-2-yl-4-chloro-phenyl)-2,6-dimethoxy-benzamide] was above 25 µM; that for `Cc1cc(C(=O)Nc2ccc(-c3nc4ccccc4s3)c(Cl)c2)ccc1[N+](=O)[O-]` [Compound 119, N-(4-Benzothiazol-2-yl-3-chloro-phenyl)-3-methyl-4-nitro-benzamide] was above 25 µM; that for `O=C(Nc1ccc(-c2nc3ccccc3s2)c(Cl)c1)c1cccc([N+](=O)[O-])c1` [Compound 120, N-(4-Benzothiazol-2-yl-3-chloro-phenyl)-3-nitro-benzamide] was above 25 µM. On to `Cc1cc(C)cc(C(=O)Nc2cc(-c3nc4ccccc4s3)ccc2Cl)c1` [Compound 122, N-(5-Benzothiazol-2-yl-2-chloro-phenyl)-3,5-dimethyl-benzamide], for which the EC50 was above 25 µM. On the same count and under the same terms, the value for `O=C(Nc1ccc(-c2nc3ccccc3s2)c(Cl)c1)c1ccc(F)cc1` [Compound 123, N-(4-Benzothiazol-2-yl-3-chloro-phenyl)-4-fluoro-benzamide] was above 25 µM; that for `O=C(Nc1ccc(-c2nc3ccccc3s2)c(Cl)c1)c1ccccc1[N+](=O)[O-]` [Compound 124, N-(4-Benzothiazol-2-yl-3-chloro-phenyl)-2-nitro-benzamide] was above 25 µM.

For a further series, the system named is all four serotypes of dengue. The series is described as follows: Yield assays against each of the four serotypes of dengue. The class given is cell-based, dengue virus. Conditions: yield assays at several drug concentrations. As for the experimental part: Initially, the chemical structures of the hit compounds were examined for chemical tractability. […] Hits that passed this medicinal chemistry filter were evaluated for their potency. Compound potency was determined by evaluating inhibitory activity across a broad range of concentrations. Nonlinear regression was used to generate best-fit inhibition curves and to calculate the 50% effective concentration (EC50). The selectivity or specificity of a given compound is typically expressed as a ratio of its cytotoxicity to its biological effect. A cell proliferation assay is used to calculate a 50% cytotoxicity concentration (CC50); the ratio of this value to the EC50 is referred to as the therapeutic index (T.I.=CC50/EC50). Two types of assays have been used to determine cytotoxicity, both of which are standard methods for quantitating the reductase activity produced in metabolically active cells (22). […] Verification that these compounds act against each of the four serotypes of dengue was done with yield assays carried out at several drug concentrations, and the titer determined for each.
Compounds that were active in the primary screen were tested for activity in viral yield assays. […] The EC50 was calculated through ExcelFit. Activities against other serotypes of dengue virus were determined in a similar way.
Turning to `COc1ccc(C(=O)Nc2ccc(-c3nc4ccc(C)cc4s3)cc2)c(OC)c1` [Compound 3, 2,4-Dimethoxy-N-[4-(6-methyl-benzothiazol-2-yl)-phenyl]-benzamide], the “activity against all four serotypes of dengue” value is “activity against all four serotypes of dengue”.

In a further series the test system is dengue.
Experiment: not given
Conditions: mouse model; cited from earlier work.
Turning to `NC(=O)c1ncn([C@@H]2O[C@H](CO)[C@@H](O)[C@H]2O)n1` [ribavirin], the protection against dengue entry is recorded as “did not show protection”.

A further series has as its system dengue.
Experiment: not given
Conditions: animal models of refs. 14, 16; model not specified; cited from earlier work.
`NC(=O)c1ncn([C@@H]2O[C@H](CO)[C@@H](O)[C@H]2O)n1` [ribavirin]: the adverse effects induced result is “induced anemia and thrombocytosis”.

Still in this series, the particulars now being: rhesus monkey model; cited from earlier work.
Consider `NC(=O)c1ncn([C@@H]2O[C@H](CO)[C@@H](O)[C@H]2O)n1` [ribavirin], for which the protection against dengue entry is given as “did not show protection”.
